Measurements from the supplement of paper PMC10307832.

Key:
Test in all cases: relative viability (nuclei count vs DMSO), 5 days (fraction); higher = more cells survive
Doxorubicin + Olaparib = compound: COc1cccc2c1C(=O)c1c(O)c3c(c(O)c1C2=O)C[C@@](O)(C(=O)CO)C[C@@H]3O[C@H]1C[C@H](N)[C@H](O)[C@H](C)O1 [Doxorubicin] + O=C(c1cc(Cc2n[nH]c(=O)c3ccccc23)ccc1F)N1CCN(C(=O)C2CC2)CC1 [Olaparib] (partner 8 µM)
Summary of the method: (§1)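 Relative viability was taken as the ratio of nuclei in treated wells to nuclei in vehicle wells. Lung cancer cell lines in 1536-well plates received compounds by pin tool one day after seeding, either one drug alone or a fixed anchor-drug dose plus five library-drug doses (not always all listed) in √10 steps. Nuclei were counted on 4× images after 5 days of treatment, and values are medians of duplicate plates.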

BAY61-3606 + Vorinostat = compound: COC1=C(C=C(C=C1)C2=CC3=NC=CN3C(=N2)NC4=C(C=CC=N4)C(=O)N)OC [BAY61-3606] + O=C(CCCCCCC(=O)Nc1ccccc1)NO [Vorinostat] (partner 1 µM)
Summary of the method: as §1

Doxorubicin + Tozasertib = compound: COc1cccc2c1C(=O)c1c(O)c3c(c(O)c1C2=O)C[C@@](O)(C(=O)CO)C[C@@H]3O[C@H]1C[C@H](N)[C@H](O)[C@H](C)O1 [Doxorubicin] + Cc1cc(Nc2cc(N3CCN(C)CC3)nc(Sc3ccc(NC(=O)C4CC4)cc3)n2)n[nH]1 [Tozasertib] (partner 0.1 µM)
Summary of the method: as §1

Doxorubicin + Luminespib = compound: COc1cccc2c1C(=O)c1c(O)c3c(c(O)c1C2=O)C[C@@](O)(C(=O)CO)C[C@@H]3O[C@H]1C[C@H](N)[C@H](O)[C@H](C)O1 [Doxorubicin] + CCNC(=O)c1noc(-c2cc(C(C)C)c(O)cc2O)c1-c1ccc(CN2CCOCC2)cc1 [Luminespib] (partner 0.01 µM)
Summary of the method: as §1

| Cell Line | relative viability (Doxorubicin + Olaparib; first compound 0.001 µM) | relative viability (Doxorubicin + Olaparib; first compound 0.003162 µM) | relative viability (Doxorubicin + Olaparib; first compound 0.01 µM) | relative viability (Doxorubicin + Olaparib; first compound 0.03162 µM) | relative viability (Doxorubicin + Olaparib; first compound 0.1 µM) | relative viability (BAY61-3606 + Vorinostat; first compound 0.02 µM) | relative viability (BAY61-3606 + Vorinostat; first compound 0.06325 µM) | relative viability (BAY61-3606 + Vorinostat; first compound 0.2 µM) | relative viability (BAY61-3606 + Vorinostat; first compound 0.6325 µM) | relative viability (BAY61-3606 + Vorinostat; first compound 2 µM) | relative viability (Doxorubicin + Tozasertib; first compound 0.003162 µM) | relative viability (Doxorubicin + Tozasertib; first compound 0.01 µM) | relative viability (Doxorubicin + Tozasertib; first compound 0.03162 µM) | relative viability (Doxorubicin + Tozasertib; first compound 0.1 µM) | relative viability (Doxorubicin + Luminespib; first compound 0.003162 µM) | relative viability (Doxorubicin + Luminespib; first compound 0.01 µM) | relative viability (Doxorubicin + Luminespib; first compound 0.03162 µM) | relative viability (Doxorubicin + Luminespib; first compound 0.1 µM) | relative viability (Doxorubicin + Tozasertib; first compound 0.001 µM) | relative viability (Doxorubicin + Luminespib; first compound 0.001 µM) |
| --- | --- | --- | --- | --- | --- | --- | --- | --- | --- | --- | --- | --- | --- | --- | --- | --- | --- | --- | --- | --- |
| NCI-H441 | 0.545 | 0.518 | 0.511 | 0.235 | 0.239 | 0.997 | 0.88 | 0.916 | 0.803 | 0.678 | 0.612 | 0.511 | 0.249 | 0.245 | 0.312 | 0.358 | 0.321 | 0.293 |  |  |
| NCI-H1993 | 0.0056 | 0.942 | 1.03 | 0.817 | 0.962 | 1.06 | 0.718 | 0.756 | 0.0488 | 0.67 | 0.657 | 0.555 | 0.58 | 0.591 | 0.859 | 0.8 | 0.713 | 0.727 | 0.593 | 1.8 |
| NCI-H1734 | 0.294 | 0.689 | 0.644 | 0.435 | 0.565 | 0.826 | 0.804 | 0.651 | 0.769 | 0.441 | 0.275 | 0.292 | 0.238 | 0.249 | 0.196 | 0.175 | 0.18 | 0.213 | 0.48 | 0.869 |
| NCI-H1666 |  | 0.701 | 0.733 | 0.602 | 0.607 | 1.02 | 1.14 | 1.12 | 1.05 | 1.18 | 0.547 | 0.47 | 0.385 | 0.343 | 0.868 | 0.735 | 0.442 | 0.411 | 0.62 | 1.01 |
| NCI-H647 | 0.503 | 0.47 | 0.48 | 0.0818 | 0.124 | 0.598 | 0.566 | 0.441 | 0.529 | 0.287 | 0.181 | 0.431 | 0.18 | 0.125 | 0.13 | 0.11 | 0.185 | 0.149 | 0.305 | 0.117 |
| LCLC-97TM1 | 0.398 | 0.514 | 0.438 | 0.234 | 0.394 | 0.893 | 0.818 | 0.534 | 0.778 | 0.589 | 0.191 | 0.216 | 0.268 | 0.319 | 0.818 | 0.677 | 0.772 | 0.834 | 0.183 | 0.718 |
| LOU-NH91 |  | 0.877 | 0.899 | 0.666 | 0.462 | 1.03 | 0.796 | 0.871 | 0.915 | 0.858 | 0.644 | 0.71 | 0.638 | 0.615 | 0.347 | 0.314 | 0.323 | 0.328 | 0.638 | 0.34 |
| RERF-LC-KJ | 0.906 | 0.784 | 0.55 | 0.3 | 0.261 | 0.701 | 0.684 | 0.704 | 0.881 | 0.614 | 0.406 | 0.398 | 0.233 | 0.233 | 1.21 | 0.838 | 0.323 | 0.308 | 0.538 | 1.32 |
| NCI-H1437 | 0.639 | 0.631 | 0.567 | 0.416 | 0.417 | 0.919 | 0.915 | 0.856 | 0.925 | 0.751 | 0.414 | 0.405 | 0.379 | 0.283 | 1.17 | 1.12 | 0.832 | 0.553 | 0.411 | 1.01 |
| NCI-H2087 | 0.652 | 0.528 | 0.445 | 0.443 | 0.372 | 0.673 | 1.03 | 0.727 | 0.359 | 0.647 | 0.278 | 0.248 | 0.165 | 0.156 | 0.19 | 0.14 | 0.133 | 0.144 |  |  |
| SW 900 |  | 1.16 | 0.894 | 0.674 | 0.868 | 0.457 |  |  | 0.564 | 0.439 | 0.491 | 0.596 | 0.456 | 0.231 | 0.152 | 0.162 | 0.167 | 0.175 | 0.543 | 0.176 |
